Numbers after ± are expanded uncertainties.
How the values were obtained:
[1] = Crystal; DTA
[2] = Molar enthalpy of transition or fusion; settings: Crystal; DSC

SMILES	Triple point temperature [1] [K]	Molar enthalpy of transition or fusion [2] [kcal/mol]
CCn1cc[n+](C)c1.[Cl-] [1-ethyl-3-methylimidazolium chloride]	359.15 ± 2	3.39 ± 0.335
CCn1cc[n+](C)c1.[Br-] [1-ethyl-3-methylimidazolium bromide]	340.15 ± 2	4.61 ± 0.359
CCn1cc[n+](C)c1.[I-] [1-ethyl-3-methylimidazolium iodide]	347.15 ± 2	4.04 ± 0.311
